Test results as given in ChEMBL document CHEMBL1145317, “Hit-to-lead optimization of 1,4-dihydroindeno[1,2-c]pyrazoles as a novel class of KDR kinase inhibitors” (Bioorg Med Chem Lett, 2006).

Experiments:
[1] = molecular target: T1, Vascular endothelial growth factor receptor 2 (Homo sapiens, UniProt P35968)
[2] = molecular target: T1, Vascular endothelial growth factor receptor 2; assay: Inhibition of VEGF-induced human KDR phosphorylation transfected in NIH3T3 cells by ELISA; type: functional, cell-based
[3] = molecular target: Hepatocyte growth factor receptor (Homo sapiens, UniProt P08581); assay: Inhibition of cMet by HTRF assay
[4] = molecular target: Vascular endothelial growth factor receptor 1 (Homo sapiens, UniProt P17948); assay: Inhibition of FLT1 by HTRF assay
Angiopoietin-1 receptor = Angiopoietin-1 receptor (Homo sapiens, UniProt Q02763); assay: Inhibition of Tie2 by HTRF assay
[5] = molecular target: Vascular endothelial growth factor receptor 3 (Homo sapiens, UniProt P35916); assay: Inhibition of FLT4 by HTRF assay
[6] = molecular target: Tyrosine-protein kinase Lck (Homo sapiens, UniProt P06239); assay: Inhibition of Lck by HTRF assay
[7] = molecular target: Fibroblast growth factor receptor (Homo sapiens, UniProt P22607+P11362+P22455+P21802); assay: Inhibition of FGFR by HTRF assay; type: protein assay
Mus musculus = assay: Activity against estradiol-induced uterine edema in orally dosed murine; type: functional; settings: po
[8] = molecular target: Mast/stem cell growth factor receptor Kit (Homo sapiens, UniProt P10721); assay: Inhibition of cKit by HTRF assay
[9] = molecular target: Platelet-derived growth factor receptor (Homo sapiens, UniProt P09619+P16234); assay: Inhibition of PDGFR by HTRF assay; type: protein-complex assay

Which IC50 [1] does the source give for CC(C)N1CCN(Cc2ccc3c(c2)-c2n[nH]c(-c4ccsc4)c2C3)CC1 here?
Its IC50 is 0.19 µM.

For O=CN1CCN(Cc2ccc3c(c2)-c2n[nH]c(-c4ccsc4)c2C3)CC1, which IC50 [1] is on record?
Its IC50 is 0.665 µM.

How did the IC50 [1] turn out when Cc1ccsc1-c1[nH]nc2c1Cc1cc(CN3CCN(C)CC3)ccc1-2 was run?
Its IC50 is over 50 µM.

With CN1CCN(Cc2ccc3c(c2)Cc2c-3n[nH]c2-c2cc3ccccc3s2)CC1 as the molecule, how does the IC50 [1] read?
The IC50 was over 50 µM.

c1cn(Cc2ccc3c(c2)-c2[nH]nc(-c4ccsc4)c2C3)cn1 was tested. Which IC50 [2] did it give?
The IC50 was 0.293 µM.

And the IC50 [1]?
The IC50 was 0.147 µM.

What about the IC50 [3] of the same molecule?
Its IC50 is over 50 µM.

What about the IC50 [4] of the same molecule?
Its IC50 is 0.601 µM.

And the IC50 (Angiopoietin-1 receptor)?
The IC50 was 17.6 µM.

And the IC50 [5]?
Its IC50 is 0.169 µM.

And the IC50 [6]?
The IC50 was 21.1 µM.

What about the IC50 [7] of the same molecule?
Its IC50 is 34.355 µM.

And the ED50 (Mus musculus)?
Its ED50 is 20 mg/kg.

And the IC50 [8]?
The IC50 was 0.103 µM.

Which IC50 [1] does the source give for c1ncn(Cc2ccc3c(c2)-c2n[nH]c(-c4ccsc4)c2C3)n1 here?
The IC50 was 0.108 µM.

With CCN(CC)Cc1ccc2c(c1)-c1n[nH]c(-c3ccsc3)c1C2 as the molecule, how does the IC50 [1] read?
The IC50 was 0.824 µM.

For CN1CCN(Cc2ccc3c(c2)-c2[nH]nc(-c4ccsc4)c2C3)CC1, which IC50 [1] is on record?
Its IC50 is 0.18 µM.

What about the IC50 [3] of the same molecule?
Its IC50 is over 50 µM.

What about the IC50 [4] of the same molecule?
The IC50 was 0.97 µM.

What about the IC50 (Angiopoietin-1 receptor) of the same molecule?
The IC50 was 47.8 µM.

And the IC50 [5]?
Its IC50 is 1.57 µM.

And the IC50 [9]?
The IC50 was over 50 µM.

And the IC50 [6]?
The IC50 was over 50 µM.

And the IC50 [7]?
The IC50 was over 50 µM.

And the IC50 [8]?
The IC50 was 0.145 µM.

Which IC50 [1] does the source give for CN1CCN(CCc2ccc3c(c2)-c2n[nH]c(-c4ccsc4)c2C3)CC1 here?
The IC50 was 0.143 µM.

With c1cn(Cc2ccc3c(c2)-c2[nH]nc(-c4ccsc4)c2C3)nn1 as the molecule, how does the IC50 [1] read?
The IC50 was 0.19 µM.

Which IC50 [1] does the source give for CN1CCN(C(=O)c2ccc3c(c2)-c2[nH]nc(-c4ccsc4)c2C3)CC1 here?
The IC50 was 4.08 µM.

For CN1CCN(c2ccc3c(c2)Cc2c(-c4cccs4)n[nH]c2-3)CC1, which IC50 [1] is on record?
The IC50 was 1000 µM.
